Each structure is given as a SMILES string.

Consider one compound from paper PMC6018554, “2-[2-(4-(trifluoromethyl)phenylamino)thiazol-4-yl]acetic acid (Activator-3) is a potent activator of AMPK” (Scientific Reports, 2018).

For one test, the target named is T1, ALK5 (Homo sapiens, UniProt P36897).
T1 construct: purchased Kinexus, Canada (screening service)
Briefly: Cell-free kinase panel (Kinexus). The class given is biochemical. As to conditions: 10 µM. The protocol:
(§1) To determine whether Activator-3 affects the activity of any other protein kinases, we screened it in cell-free assays against a panel of 100 protein kinases (Kinexus, Canada). […] Three kinases, DDR1 (−79%), SRC (−71%) and ALK5 (−61%) were inhibited by Activator-3 by more than 50% at 10 µM.

The next test concerns the target T2, CAMKK2 (Homo sapiens, UniProt Q96RR4).
T2 construct: purchased Kinexus, Canada (screening service)
Kind of test: Cell-free kinase panel (Kinexus). The class given is biochemical. As for the experimental part:
as §1

The target of a further test is T3, DDR1 (Homo sapiens, UniProt Q08345).
T3 construct: purchased Kinexus, Canada (screening service)
T3 sequence (Q08345 19-913, species assumed): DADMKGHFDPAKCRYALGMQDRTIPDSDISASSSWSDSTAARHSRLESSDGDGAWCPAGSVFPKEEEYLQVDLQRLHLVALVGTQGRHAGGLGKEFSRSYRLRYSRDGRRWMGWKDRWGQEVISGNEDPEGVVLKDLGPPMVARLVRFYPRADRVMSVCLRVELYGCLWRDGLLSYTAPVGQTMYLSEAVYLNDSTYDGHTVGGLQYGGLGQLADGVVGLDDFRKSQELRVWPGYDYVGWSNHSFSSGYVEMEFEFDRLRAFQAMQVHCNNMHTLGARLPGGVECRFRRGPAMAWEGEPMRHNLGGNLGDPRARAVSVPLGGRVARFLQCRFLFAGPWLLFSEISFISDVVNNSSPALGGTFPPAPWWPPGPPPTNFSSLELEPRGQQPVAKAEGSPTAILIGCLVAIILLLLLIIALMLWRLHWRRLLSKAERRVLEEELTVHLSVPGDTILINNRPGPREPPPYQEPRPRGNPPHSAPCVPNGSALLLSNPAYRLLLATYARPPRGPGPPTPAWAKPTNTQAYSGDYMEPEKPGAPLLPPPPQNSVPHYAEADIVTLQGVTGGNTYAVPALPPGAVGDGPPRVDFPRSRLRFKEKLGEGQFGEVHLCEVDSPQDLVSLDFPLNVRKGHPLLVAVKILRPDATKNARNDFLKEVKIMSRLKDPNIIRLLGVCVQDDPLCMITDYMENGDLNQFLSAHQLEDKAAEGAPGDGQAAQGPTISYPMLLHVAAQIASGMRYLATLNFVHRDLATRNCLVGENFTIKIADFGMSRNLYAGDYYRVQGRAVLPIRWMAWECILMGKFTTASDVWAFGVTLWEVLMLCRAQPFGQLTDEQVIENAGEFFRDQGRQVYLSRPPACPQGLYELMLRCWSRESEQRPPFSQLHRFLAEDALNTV
Briefly: Cell-free kinase panel (Kinexus). The format is biochemical. As to conditions: 10 µM. As for the experimental part: as §1

The target of another test is T4, LRRK2 (Homo sapiens, UniProt Q5S007).
T4 construct: purchased Kinexus, Canada (screening service)
Briefly: Cell-free kinase panel (Kinexus). The class given is biochemical. As to conditions: 10 µM. As for the experimental part:
as §1

A further test deals with T5, PAK1 (Homo sapiens, UniProt Q13153).
T5 construct: purchased Kinexus, Canada (screening service)
T5 sequence (Q13153 whole entry): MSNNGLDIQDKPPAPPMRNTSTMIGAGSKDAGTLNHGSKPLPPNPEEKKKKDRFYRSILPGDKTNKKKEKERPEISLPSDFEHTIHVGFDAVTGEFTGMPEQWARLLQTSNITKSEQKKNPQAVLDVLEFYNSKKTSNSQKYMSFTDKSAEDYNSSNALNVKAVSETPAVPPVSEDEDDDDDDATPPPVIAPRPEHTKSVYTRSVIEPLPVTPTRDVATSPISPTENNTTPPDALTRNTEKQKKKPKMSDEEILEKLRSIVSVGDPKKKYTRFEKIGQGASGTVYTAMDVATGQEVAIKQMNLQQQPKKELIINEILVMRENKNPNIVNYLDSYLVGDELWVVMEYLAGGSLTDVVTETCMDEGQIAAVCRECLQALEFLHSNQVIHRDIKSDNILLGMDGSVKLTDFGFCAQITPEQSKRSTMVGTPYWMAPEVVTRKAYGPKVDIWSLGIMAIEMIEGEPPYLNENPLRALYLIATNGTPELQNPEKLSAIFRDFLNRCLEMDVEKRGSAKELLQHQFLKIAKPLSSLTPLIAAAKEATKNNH
Briefly: Cell-free kinase panel (Kinexus). The class given is biochemical. As to conditions: 10 µM. As for the experimental part: as §1

In another test the target is T6, PRK1 (Homo sapiens, UniProt Q16512).
T6 construct: purchased Kinexus, Canada (screening service)
T6 sequence (Q16512 whole entry, species assumed): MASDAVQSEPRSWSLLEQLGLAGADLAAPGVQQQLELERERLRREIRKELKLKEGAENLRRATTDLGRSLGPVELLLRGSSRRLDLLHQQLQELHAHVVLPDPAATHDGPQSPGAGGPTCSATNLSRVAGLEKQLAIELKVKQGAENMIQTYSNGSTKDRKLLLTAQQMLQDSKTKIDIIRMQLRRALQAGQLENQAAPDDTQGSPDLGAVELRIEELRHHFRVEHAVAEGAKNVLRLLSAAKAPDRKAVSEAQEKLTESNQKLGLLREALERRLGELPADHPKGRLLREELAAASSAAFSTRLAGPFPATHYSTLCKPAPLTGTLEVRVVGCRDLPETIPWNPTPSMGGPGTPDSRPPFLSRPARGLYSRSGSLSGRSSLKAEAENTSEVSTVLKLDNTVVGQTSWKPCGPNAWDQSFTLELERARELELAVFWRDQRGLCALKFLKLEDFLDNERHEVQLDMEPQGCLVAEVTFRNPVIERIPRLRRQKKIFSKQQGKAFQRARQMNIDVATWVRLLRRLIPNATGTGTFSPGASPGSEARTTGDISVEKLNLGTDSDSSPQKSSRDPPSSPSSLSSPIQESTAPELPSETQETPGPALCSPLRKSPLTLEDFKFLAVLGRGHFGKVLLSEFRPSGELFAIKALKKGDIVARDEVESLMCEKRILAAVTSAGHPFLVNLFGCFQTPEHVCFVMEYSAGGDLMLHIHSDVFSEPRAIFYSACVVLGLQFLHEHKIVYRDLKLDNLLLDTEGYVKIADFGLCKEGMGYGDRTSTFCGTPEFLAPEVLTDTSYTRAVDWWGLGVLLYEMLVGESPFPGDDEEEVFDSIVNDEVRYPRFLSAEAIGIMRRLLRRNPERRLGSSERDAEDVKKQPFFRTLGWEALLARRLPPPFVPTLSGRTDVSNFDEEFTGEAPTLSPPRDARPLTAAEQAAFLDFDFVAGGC
Kind of test: Cell-free kinase panel (Kinexus). The conditions noted are these: 10 µM. The class given is biochemical. As for the experimental part:
as §1

In another test the target is T7, ROR2 (Homo sapiens, UniProt Q01974).
T7 construct: purchased Kinexus, Canada (screening service)
T7 sequence (Q01974 34-943, species assumed): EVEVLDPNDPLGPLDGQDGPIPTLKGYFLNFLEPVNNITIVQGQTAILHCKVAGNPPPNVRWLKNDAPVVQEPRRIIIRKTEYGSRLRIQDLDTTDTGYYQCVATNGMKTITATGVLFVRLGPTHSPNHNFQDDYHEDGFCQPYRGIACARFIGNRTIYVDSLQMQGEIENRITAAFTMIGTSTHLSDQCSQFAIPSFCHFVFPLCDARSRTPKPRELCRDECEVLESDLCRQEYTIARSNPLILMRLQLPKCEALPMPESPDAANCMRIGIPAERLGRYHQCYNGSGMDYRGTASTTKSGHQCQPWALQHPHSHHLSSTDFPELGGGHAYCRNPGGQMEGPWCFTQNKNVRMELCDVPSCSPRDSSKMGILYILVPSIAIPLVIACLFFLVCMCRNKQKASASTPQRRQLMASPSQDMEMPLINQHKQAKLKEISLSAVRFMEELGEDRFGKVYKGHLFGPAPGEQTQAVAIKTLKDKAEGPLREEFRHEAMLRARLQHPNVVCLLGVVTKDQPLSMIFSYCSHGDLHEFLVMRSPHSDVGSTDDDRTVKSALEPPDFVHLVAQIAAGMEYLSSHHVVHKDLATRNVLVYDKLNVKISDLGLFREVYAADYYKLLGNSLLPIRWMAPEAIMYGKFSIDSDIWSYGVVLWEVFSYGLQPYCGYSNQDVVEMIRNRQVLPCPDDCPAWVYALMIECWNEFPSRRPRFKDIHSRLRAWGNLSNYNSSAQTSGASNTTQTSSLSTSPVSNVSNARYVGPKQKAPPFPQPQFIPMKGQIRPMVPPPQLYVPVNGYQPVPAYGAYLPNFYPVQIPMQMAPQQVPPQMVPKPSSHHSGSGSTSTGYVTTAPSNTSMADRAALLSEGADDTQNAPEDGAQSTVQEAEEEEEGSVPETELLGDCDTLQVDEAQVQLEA
Kind of test: Cell-free kinase panel (Kinexus). The format is biochemical. As to conditions: 10 µM. As for the experimental part:
as §1

The next test addresses T8, SRC (Homo sapiens, UniProt P12931).
T8 construct: purchased Kinexus, Canada (screening service)
Kind of test: Cell-free kinase panel (Kinexus). The class given is biochemical. The conditions noted are these: 10 µM. The protocol: as §1

A further test deals with T9, TAK1 (Homo sapiens, UniProt O43318).
T9 construct: purchased Kinexus, Canada (screening service)
T9 sequence (O43318 1-303 limits assumed): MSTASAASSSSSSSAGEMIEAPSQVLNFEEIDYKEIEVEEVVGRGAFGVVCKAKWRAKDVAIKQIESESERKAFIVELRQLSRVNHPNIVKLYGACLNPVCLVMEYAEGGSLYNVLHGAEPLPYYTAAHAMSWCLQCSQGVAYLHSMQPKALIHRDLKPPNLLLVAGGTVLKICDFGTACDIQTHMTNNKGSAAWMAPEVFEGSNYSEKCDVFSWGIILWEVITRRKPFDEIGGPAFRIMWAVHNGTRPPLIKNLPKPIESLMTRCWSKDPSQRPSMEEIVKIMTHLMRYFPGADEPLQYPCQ
Briefly: Cell-free kinase panel (Kinexus). As to conditions: 10 µM. The format is biochemical. The protocol: as §1

The subject of test [1] is human recombinant α1β1γ1 AMPK γ1 mutants (R70G, R152G). Kind of test: In vitro kinase assay with mutant AMPK pulled down from HEK-293T cells. As to conditions: 30 nM Activator-3; γ1 R70G, R152G mutants. The class given is biochemical. The protocol:
A high binding Enzyme Immuno Assay (EIA) 96-well plate (Sigma: Cat# CLS3590) was coated with Acetyl CoA Carboxylase 2 (ACC: 175–271 amino acids) peptide, a direct substrate for AMPK, 100 ng per well (1:1000 ratio, Cat# 12–491, Upstate biotechnology) and incubated overnight at 25 °C. Reaction mixture was incubated at 30 °C for 2 h and reaction was stopped by washing the plate with 0.05% Tween 20 followed by incubation with pACC primary antibody and rabbit secondary antibody as described in cell based ELISA section. Assay buffer is composed of 10 mM DTT, 100 mM magnesium acetate, 50 μM ATP and 10 mM HEPES.
R70 and R152 residues in AMPK γ1 subunit (pDONR223-PRKAG1: purchased from addgene, cat# plasmid#23718) are mutated to glycine using overlapping extension PCR. Subsequently, the mutants were transferred into a triple tagged destination vector (Streptavidin, Flag and Biotin; SFB-pDEST) by using gateway cloning technology. The mutant DNA was transfected into HEK-293T cells using PEI following standard procedures. After 4 h of transfection, media was changed to DMEM containing 10% FBS. Cells were lysed in TENNS lysis buffer (20 mM Tris pH:8.0, 100 mM NaCl, 1 mM EDTA, 10 mM Na2H2P2O7, 10 mM NaF, 10 mM Na3VO4, 0.5% NP40) and subjected to pull down using streptavidin beads followed by biotin elution. To protect the protein from dephosphorylation, cells were treated with 500 μM AICAR prior to lysis. This purified protein was estimated by using nanodrop and taken for in vitro kinase assay to check whether Activator-3 is binding to the mutant AMPK or not, and the activity of the mutant protein was assessed by comparing with the wild type protein activity.

Another test concerns HSD fed diabetic rats. Briefly: HSD fed insulin resistant diabetic rats. The class given is in vivo, rat. The protocol: Approximately 100 mg of soleus muscle tissue was taken and lysed with RIPA lysis buffer. Lysates were resolved on 12% SDS–polyacrylamide gels and were transferred to PVDF membrane (Millipore, USA). Membrane was blocked with 5% nonfat milk in TRIS buffered saline (TBS; 10 mM TRIS (pH 8.0), 150 mM NaCl) for 1 hour and probed with primary antibody of interest: phospho-AMPK (Thr^172) (1:1000; Cell Signaling Technology, USA), phospho-ACC (Ser^79) (1:1000; Cell Signaling Technology, USA), total AMPK (1:1000; Cell Signaling Technology, USA), total ACC (1:1000; Cell Signaling Technology, USA), and total Actin (1:1000; Santa Cruz Biotechnology, USA). Subsequently, membranes were incubated with corresponding HRP-conjugated secondary antibodies. The chemiluminescence signals were captured on photographic films using an enhanced chemiluminescence (Thermo Scientific, USA).The loading controls of phospho-ACC and phospho-AMPK in Fig. 6J were probed in parallel gels.
Twelve weeks old healthy colony bred male Wistar rats, weighing about 150–200 grams were purchased from the animal research facility (Cadila Pharma limited, Ahmedabad, India) and maintained at the animal house of Institute of pharmacy (Nirma University, India). All the methods were carried out in accordance with the approved guidelines. Experimental protocol involving animals was reviewed and approved by the Animal Ethical Committee of Institute of Science, Nirma University, Ahmedabad, India (Protocol No. IS/FAC/14-1/021) Animals were maintained in polypropylene cages in a standard photoperiod (12 h light:12 h dark cycle) and temperature (27 ± 1 °C) controlled room with the provision of laboratory food (Gold Mohur feeds Ltd, New Delhi, India) and water ad libitum. Animals were segregated into three different experimental groups with 6 animals in each as follows: non-diabetic group with standard chow diet (control group, CD), Diabetic group with high sucrose diet (65%, treated group, HSD)[84] and HSD with AMPK Activator-3 treated group (10 mg/kg body weight of animal). Post HSD induction animals were treated with AMPK Activator-3 for 30 days.
Animals were subjected to an OGTT at a beginning of the treatment (0 day) and a day before the end of the experiment (30 day). OGTT was performed after 12 h of the fasting. Briefly, after fasting, animals were given a glucose load (2 g/kg) orally. Blood samples were collected from the animal tail vein at 0 min (before glucose administration) and at 15, 30, 60, 90 and 120 min after glucose administration. Glucose concentration was determined using a CareSensN blood glucose monitor and glucose strips. Area under the curve for glucose (AUCglucose) was calculated using the trapezoidal rule.
Approximately, 1 ml of the blood samples was collected from the retro-orbital plexus of the animals under the mild anesthesia using diethyl ether. Blood was then transferred to the microfuge tubes for separation of plasma and serum at 0 day (start of the treatment) and the last day of the experiment (30 day). Total cholesterol and triglycerides levels were estimated from plasma using a diagnostic kit from Accucare India Ltd according to the protocol mentioned by the manufacturer.
Plasma FFA was estimated using chloroform and triethyalanomine extraction method by measuring the absorbance at 440 nm. The stearic acid was used as standard fatty acid and detailed protocol was performed as mentioned[85],[86]. […]

The mark [2] stands for this setting: 10 mg/kg oral once a day, 30th day.

T1 sequence (P36897 34-503, species assumed): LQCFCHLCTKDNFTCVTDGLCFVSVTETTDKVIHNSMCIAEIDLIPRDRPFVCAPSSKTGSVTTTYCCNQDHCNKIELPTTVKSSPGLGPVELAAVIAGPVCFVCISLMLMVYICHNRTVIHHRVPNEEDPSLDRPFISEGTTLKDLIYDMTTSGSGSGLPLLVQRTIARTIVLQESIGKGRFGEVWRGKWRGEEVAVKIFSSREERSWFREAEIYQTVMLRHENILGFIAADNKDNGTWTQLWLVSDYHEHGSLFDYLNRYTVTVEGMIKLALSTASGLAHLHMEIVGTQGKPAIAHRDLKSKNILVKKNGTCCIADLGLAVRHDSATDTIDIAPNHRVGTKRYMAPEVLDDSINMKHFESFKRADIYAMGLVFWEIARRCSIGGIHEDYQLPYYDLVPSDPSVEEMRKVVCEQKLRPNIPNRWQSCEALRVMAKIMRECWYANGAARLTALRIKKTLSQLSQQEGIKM
T2 sequence (Q96RR4 whole entry, species assumed): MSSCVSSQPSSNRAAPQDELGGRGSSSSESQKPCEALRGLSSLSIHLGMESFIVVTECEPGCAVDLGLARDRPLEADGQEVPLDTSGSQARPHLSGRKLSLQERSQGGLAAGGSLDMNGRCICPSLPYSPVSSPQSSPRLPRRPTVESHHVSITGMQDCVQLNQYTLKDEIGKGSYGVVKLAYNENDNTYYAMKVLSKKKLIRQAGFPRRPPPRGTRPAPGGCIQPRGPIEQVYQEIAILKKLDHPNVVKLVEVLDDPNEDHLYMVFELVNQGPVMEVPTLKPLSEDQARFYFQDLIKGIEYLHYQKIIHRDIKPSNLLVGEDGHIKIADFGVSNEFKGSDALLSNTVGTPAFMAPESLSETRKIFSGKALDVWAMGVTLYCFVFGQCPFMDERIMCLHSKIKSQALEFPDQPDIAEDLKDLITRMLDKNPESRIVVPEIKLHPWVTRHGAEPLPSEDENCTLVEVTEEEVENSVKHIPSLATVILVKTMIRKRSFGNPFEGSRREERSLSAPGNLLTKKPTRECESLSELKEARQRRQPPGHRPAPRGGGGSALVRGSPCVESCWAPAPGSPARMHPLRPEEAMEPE

As for `O=C(O)Cc1csc(Nc2ccc(C(F)(F)F)cc2)n1` [Activator-3, 2-[2-(4-(trifluoromethyl)phenylamino)thiazol-4-yl]acetic acid], the activity change at ALK5 is on record as −61%; on DDR1 it was −79%; at LRRK2, −34%; on PAK1 it was −42%; on PRK1, −36%; at ROR2, −35%. In addition, on SRC, the activity change is recorded as −71%. Further, testing at 10 µM on CAMKK2 gave an inhibition of 36%. Further, the “effect on kinase activity” value at TAK1 is given as “not affected”. Moreover, the “AMPK activity of mutant proteins vs wild type” value in [1] is listed as “significant reduction”. For the same compound, the “glucose concentration in OGTT vs HSD group” value in the test with HSD fed diabetic rats (setting [2]) is “significantly reduced”. Moreover, the “plasma free fatty acid vs HSD group” value in the test on HSD fed diabetic rats (setting [2]) was “significantly lower”. For the same compound, the “plasma total cholesterol vs HSD group” value in the test with HSD fed diabetic rats (setting [2]) is given as “significantly lower”. Moreover, in the test on HSD fed diabetic rats (10 mg/kg oral once a day, 30 days, p < 0.05), the “HSD induced body weight gain” value is given as “decreased”. In addition, the “phosphorylation of AMPK and ACC in soleus muscle” value in the test with HSD fed diabetic rats (10 mg/kg/day for 30 days, western blot) was “restored”.
